In article PMC12259978 (Scientific Reports, 2025) one finds inhibition, Ki and type of inhibition data, which are given here for 9 compounds.

In assay [1] the target is T1, tyrosinase (Agaricus bisporus, UniProt C7FF04). The assay is described as follows: Tyrosinase inhibitory assay. In kind it is biochemical. The conditions noted are these: read-out: % inhibition of tyrosinase.
Assay [2] addresses T1, tyrosinase. In words: Enzyme kinetic study. The class given is biochemical.

T1 sequence (C7FF04 whole entry): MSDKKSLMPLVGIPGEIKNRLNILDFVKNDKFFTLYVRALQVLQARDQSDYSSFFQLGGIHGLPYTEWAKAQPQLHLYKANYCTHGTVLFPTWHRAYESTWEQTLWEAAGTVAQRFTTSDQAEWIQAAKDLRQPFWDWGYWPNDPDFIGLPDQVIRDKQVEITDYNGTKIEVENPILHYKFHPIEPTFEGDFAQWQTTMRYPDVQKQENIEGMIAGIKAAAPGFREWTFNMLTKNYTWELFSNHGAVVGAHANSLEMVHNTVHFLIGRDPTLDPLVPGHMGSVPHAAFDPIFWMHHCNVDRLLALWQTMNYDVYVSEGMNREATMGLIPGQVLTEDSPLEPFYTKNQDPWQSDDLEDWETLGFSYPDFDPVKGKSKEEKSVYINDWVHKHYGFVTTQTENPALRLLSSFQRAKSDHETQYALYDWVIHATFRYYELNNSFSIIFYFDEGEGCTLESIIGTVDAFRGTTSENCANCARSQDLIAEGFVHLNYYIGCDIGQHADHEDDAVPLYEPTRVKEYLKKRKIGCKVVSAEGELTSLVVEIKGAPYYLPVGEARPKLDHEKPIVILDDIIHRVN

Regarding `O=C(CSc1nc2ccccc2cc1C=Nn1c(S)nnc1-c1ccccc1)Nc1ccc(Cl)cc1` [12d, N-(4-chlorophenyl)-2-((3-(((3-mercapto-5-phenyl-4H-1,2,4-triazol-4-yl)imino)methyl)quinolin-2-yl)thio)acetamide], on tyrosinase [1], the inhibition (usually the percentage by which the read-out fell short of the control) at 50 µM worked out at 66%.
Regarding `O=C(CSc1nc2ccccc2cc1C=Nn1c(S)nnc1-c1ccccc1)NCCc1ccccc1` [12j, 2-((3-(((3-Mercapto-5-phenyl-4H-1,2,4-triazol-4-yl)imino)methyl)quinolin-2-yl)thio)-N-phenethylacetamide], the inhibition at 50 µM on tyrosinase [1] is 86.6%. Moreover, the Ki (commonly a dissociation constant, usually derived from enzyme kinetics or from competition with a known ligand) at tyrosinase [2] amounted to 9.06 µM. Besides, on tyrosinase [2] (Lineweaver-Burk plot, Vmax unchanged, Km increased), the type of inhibition entry is “competitive inhibitor”.
For `O=C(CSc1nc2ccccc2cc1C=Nn1c(S)nnc1-c1ccccc1)Nc1ccccc1` [12a, 2-((3-(((3-mercapto-5-phenyl-4H-1,2,4-triazol-4-yl)imino)methyl)quinolin-2-yl)thio)-N-phenylacetamide], the inhibition at 50 µM at tyrosinase [1] was found to be 32.2%.
On the same count and under the same terms, in the case of `Cc1ccc(NC(=O)CSc2nc3ccccc3cc2C=Nn2c(S)nnc2-c2ccccc2)cc1` [12g, 2-((3-(((3-Mercapto-5-phenyl-4H-1,2,4-triazol-4-yl)imino)methyl)quinolin-2-yl)thio)-N-(p-tolyl)acetamide] it was 51.4%; in that of `COc1ccc(NC(=O)CSc2nc3ccccc3cc2C=Nn2c(S)nnc2-c2ccccc2)cc1` [12f, 2-((3-(((3-Mercapto-5-phenyl-4H-1,2,4-triazol-4-yl)imino)methyl)quinolin-2-yl)thio)-N-(4-methoxyphenyl)acetamide], 40.9%.
Turning to `O=C(CSc1nc2ccccc2cc1C=Nn1c(S)nnc1-c1ccccc1)Nc1ccccc1Cl` [12b, N-(2-chlorophenyl)-2-((3-(((3-mercapto-5-phenyl-4H-1,2,4-triazol-4-yl)imino)methyl)quinolin-2-yl)thio)acetamide], the inhibition at 50 µM on tyrosinase [1] came out at 55.7%.
Turning to `Cc1cccc(NC(=O)CSc2nc3ccccc3cc2C=Nn2c(S)nnc2-c2ccccc2)c1C` [12i, N-(2,3-dimethylphenyl)-2-((3-(((3-mercapto-5-phenyl-4H-1,2,4-triazol-4-yl)imino)methyl)quinolin-2-yl)thio)acetamide], the inhibition at 50 µM on tyrosinase [1] was 43.8%.
Same read-out and setting: the result for `Cc1ccccc1NC(=O)CSc1nc2ccccc2cc1C=Nn1c(S)nnc1-c1ccccc1` [12h, 2-((3-(((3-Mercapto-5-phenyl-4H-1,2,4-triazol-4-yl)imino)methyl)quinolin-2-yl)thio)-N-(o-tolyl)acetamide] reads 46%; that for `O=C(CSc1nc2ccccc2cc1C=Nn1c(S)nnc1-c1ccccc1)Nc1ccc(Cl)cc1Cl` [12e, N-(2,4-dichlorophenyl)-2-((3-(((3-mercapto-5-phenyl-4H-1,2,4-triazol-4-yl)imino)methyl)quinolin-2-yl)thio)acetamide], 48.3%.
